Assay results taken from patent publication US12486259B2, “FXR agonist having pyrazine structure, and preparation method and use” (JIANGSU TASLY DIYI PHARMACEUTICAL CO., LTD., priority 2020, dated 2025).

What was measured:
[1] = test system: C57/BL6 mice fed MCD diet; assay: Pharmacodynamic test in methionine-choline deficient diet (MCD) model of non-alcoholic fatty liver disease; format: in vivo; details: for Weight, 0 week / Food intake, 1 week / Weight, 1 week / Food intake, 2 weeks / Weight, 2 weeks / Food intake, 3 weeks / Weight, 3 weeks / Food intake, 4 weeks / Weight, 4 week / liver weight / liver/body weight / ALT, 3 weeks / AST, 3 weeks / ALT, 4 weeks / AST, 4 weeks / HDL (blood lipid) / LDL (blood lipid) / TC (blood lipid) / TG (blood lipid) / HE score / Sirius red staining area / liver TC / liver TG: MCD mice, obeticholic acid 40 mpk; for Weight, 0 week / Weight, 1 week / Weight, 2 weeks / Weight, 3 weeks / Weight, 4 week: TM compounds 30 mpk, once daily by gavage; for Food intake, 1 week / Food intake, 2 weeks / Food intake, 3 weeks / Food intake, 4 weeks / liver weight / liver/body weight / ALT, 3 weeks / AST, 3 weeks / ALT, 4 weeks / AST, 4 weeks / HDL (blood lipid) / LDL (blood lipid) / TC (blood lipid) / TG (blood lipid) / HE score / Sirius red staining area / liver TC / liver TG: TM 30 mpk; for Food intake, 1 week / Food intake, 2 weeks / Food intake, 3 weeks / Food intake, 4 weeks / ALT, 3 weeks / AST, 3 weeks / ALT, 4 weeks / AST, 4 weeks: gavage; for Food intake, 4 weeks / Weight, 4 week / ALT, 4 weeks / AST, 4 weeks / HE score / Sirius red staining area: 4 weeks; for liver weight / liver/body weight / HDL (blood lipid) / LDL (blood lipid) / TC (blood lipid) / TG (blood lipid) / liver TC / liver TG: after 4 weeks; for ALT, 3 weeks / AST, 3 weeks / ALT, 4 weeks / AST, 4 weeks / HDL (blood lipid) / LDL (blood lipid) / TC (blood lipid) / TG (blood lipid): blood; for HE score: liver pathology score (Table 12 criteria); for Sirius red staining area / liver TC / liver TG: liver; for blood lipid levels (in words) / liver triglyceride and cholesterol content (in words) / liver weight and liver/body weight (in words): after 4 weeks of MCD and compounds treatment; for ALT and AST compared to the model group (in words): three weeks after MCD and compounds treatment
Experimental: Animal strain: C57/BL6, Animal Grade: SPF Grade, Gender: male, Animal Age: 8 weeks old, Animals Received Date: 2018 Sep. 28, Animal Source: Shanghai Lingchang Biotechnology Co. Ltd., Animal Certificate No: SCXK (Shanghai)2013-0018 2013001836799, Mouse feeding Environment: temperature 20-26° C., humidity 40-70%, 12 hour day and night cycle.
5% Solutol HS15/Normal saline: after Solutol HS15 (polyethylene glycol 15 hydroxystearate solubilizer) is dissolved in a water bath at 37° C., 5 ml of it is dissolved in 100 ml of normal saline, thoroughly stirred for later use.
Obeticholic acid/5% Solutol HS15/Normal saline: 0.15 ml Solutol HS15 is added to accurately weighed 12 mg obeticholic acid to fully dissolve it, and 2.85 ml normal saline is added, vigorously mixed and dissolved by the ultrasound. • TM-01 Group/5% Solutol HS15/Normal saline: 2.5 ml of 6 mg/ml TM-01 suspension is taken, 2.5 ml of 5% Solutol HS15/normal saline is added, and the mixture is mixed well. • TM-02 Group/5% Solutol HS15/Normal saline: 2.5 ml of 6 mg/ml TM-02 suspension is taken, 2.5 ml of 5% Solutol HS15/normal saline is added, and the mixture is mixed well. • TM-06 Group/5% Solutol HS15/Normal saline: 2.5 ml of 6 mg/ml TM-06 suspension is taken, 2.5 ml of 5% Solutol HS15/Normal saline is added, and the mixture is mixed well. • TM-09 Group/5% Solutol HS15/Normal saline: 2.5 ml of 6 mg/ml TM-09 suspension is taken, 2.5 ml of 5% Solutol HS15/Normal saline is added, and the mixture is mixed well.
Menstruum and test compounds are administered by gavage at a dose volume of 10 ml/kg;
After reaching the animal house, 70 8-week-old C57/BL6 mice are fed adaptively and randomly divided into 7 groups according to body weight after the average body weight reaches 23 g. They are given the model feed. The first group receives the control diet MCS and the remaining groups receive the MCD diet, while each group of mice receives compound treatment as follows: • Group 1. Control Group: MCS, menstruum, administered once daily by gavage; • Group 2. Model Group: MCD, menstruum, administered once daily by gavage; • Group 3. Obeticholic acid group: MCD, 40 mpk obeticholic acid, administered once daily by gavage; • Group 4. TM-01 Group: MCD, 30 mpk TM-01, administered once daily by gavage; • Group 5. TM-02 Group: MCD, 30 mpk TM-02, administered once daily by gavage; • Group 6. TM-06 Group: MCD, 30 mpk TM-06, administered once daily by gavage; • Group 7. TM-09 Group: MCD, 30 mpk TM-09, administered once daily by gavage; 2.4 Experimental Methods
Body weight and food intake are measured weekly during the experiment. Twenty-one days after administration, tail tips are bled with microcapillaries for AST, ALT measurements. Twenty-eight days after administration, mice are terminated, hearts are bled, and liver tissues are collected and weighed. One portion is snap frozen with liquid nitrogen for subsequent analysis and the other portion are fixed for pathological analysis.
Mouse blood is centrifuged at 5000 rpm for 10 minutes and supernatants are collected for determination of TG (triglycerides), TC (total cholesterol), HDL (high density lipoprotein), LDL (low density lipoprotein), AST (aspartate aminotransferase) and ALT (alanine aminotransferase).
AST and ALT after administration for three and four weeks are determined according to the instructions of kit. The blood lipid index 4 weeks after administration is sent to Adicon Medical Laboratory Co. Ltd. for detection.
The livers are removed from −80° C., homogenized in PBS (phosphate buffered saline), extracted with chloroform methanol organic phase, and subjected to TC and TG assays using the kit, normalized for protein content.
Four weeks after administration, the mice are anesthetized. The heart is bled, the liver is isolated and weighed. The right lobe is snapfrozen with liquid nitrogen and stored at −80° C. for liver lipid analysis. The left lobe is isolated and fixed in 10% formalin for subsequent HE and Sirius Red staining. […]

[2] = in vitro; details: human; for efflux ratio: Caco-2; for Papp B→A: Caco-2, Papp B-A; for recovery: Caco-2, Recovery rate A-B
Experimental: The bi-directional transport of target compounds from apical side (AP) to basolateral side (BL) and from BL side to AP side is studied by using human colon adenocarcinoma cell line Caco-2 monolayer model. The transport parameters, apparent permeability coefficient (Papp) and efflux ratio are calculated by quantitative analysis with high performance liquid chromatography (HPLC).

[3] = Caco-2, Papp, A-to-B values (highly permeable substrates)

O=C(O)c1cccc(C2CC(O)(c3cnc(OCc4c(-c5c(Cl)cccc5Cl)noc4C4CC4)cn3)C2)c1 (centres unmarked) [TM-01, 3-(3-(5-(5-cyclopropyl-3-(2,6-dichlorophenyl)isoxazole-4-ylmethoxy)-2-pyrazine)-1-hydroxycyclobutane) benzoic acid]
Weight, 0 week [1]: 23.78 ± 0.47 g | Food intake, 1 week [1]: 3.011 ± 0.555 g | Weight, 1 week [1]: 21.24 ± 0.42 g | Food intake, 2 weeks [1]: 2.746 ± 0.466 g | Weight, 2 weeks [1]: 18.49 ± 0.41 g | Food intake, 3 weeks [1]: 1.909 ± 0.215 g | Weight, 3 weeks [1]: 16.97 ± 0.38 g | Food intake, 4 weeks [1]: 1.697 ± 0.027 g | Weight, 4 week [1]: 14.70 ± 0.20 g | liver weight [1]: 0.89 ± 0.05 g | liver/body weight [1]: 6.32 ± 0.26 % | ALT, 3 weeks [1]: 41.58 ± 10.32 U/L | AST, 3 weeks [1]: 53.50 ± 19.62 U/L | ALT, 4 weeks [1]: 14.28 ± 13.21 U/L | AST, 4 weeks [1]: 40.36 ± 26.31 U/L | HDL (blood lipid) [1]: 0.59 ± 0.11 mmol/L | LDL (blood lipid) [1]: 2.61 ± 0.26 mmol/L | TC (blood lipid) [1]: 0.95 ± 0.44 mmol/L | TG (blood lipid) [1]: 0.53 ± 0.10 mmol/L | HE score [1]: 1 | Sirius red staining area [1]: 0.365 ± 0.069 % | liver TC [1]: 34.9 ± 8.2 µmol/g protein | liver TG [1]: 247 ± 54.1 µmol/g protein | blood lipid levels (in words) [1]: different reductions in blood lipids | liver triglyceride and cholesterol content (in words) [1]: significant lowering effect on liver triglyceride and cholesterol levels | liver weight and liver/body weight (in words) [1]: significantly increases mouse liver weight and liver/body weight | ALT and AST compared to the model group (in words) [1]: significantly reduced | efflux ratio [2]: 3.95 | Papp A→B ([2]; Caco-2, Papp A-B): 8.25 ×10⁻⁶ cm/s | Papp A→B ([2]; Caco-2, Papp A-B, Average): 8.17 ×10⁻⁶ cm/s | Papp A→B ([2]; Caco-2, Papp A-B, Sample-01): 6.42 ×10⁻⁶ cm/s | Papp A→B ([2]; Caco-2, Papp A-B, Sample-02): 9.91 ×10⁻⁶ cm/s | Papp B→A [2]: 32.6 ×10⁻⁶ cm/s | Papp A→B [2, 3]: > 2.5 ×10⁻⁶ cm/s | recovery ([2]; Average): 71.2% | recovery ([2]; Sample-01): 63.9% | recovery ([2]; Sample-02): 78.5%

O=C(O)c1cccc(N2CC(O)(c3cnc(OCc4c(-c5c(Cl)cccc5Cl)noc4C4CC4)cn3)C2)c1 [TM-02, 3-(3-(5-((5-cyclopropyl-3-(2,6-dichlorophenyl)isoxazol-4-yl)methoxy)pyrazine-2-yl)-3-hydroxyazetidin-1-yl) benzoic acid]
Weight, 0 week [1]: 23.71 ± 0.35 g | Food intake, 1 week [1]: 2.190 ± 0.504 g | Weight, 1 week [1]: 21.52 ± 0.42 g | Food intake, 2 weeks [1]: 2.400 ± 0.288 g | Weight, 2 weeks [1]: 18.81 ± 0.49 g | Food intake, 3 weeks [1]: 1.688 ± 0.266 g | Weight, 3 weeks [1]: 16.69 ± 0.34 g | Food intake, 4 weeks [1]: 1.518 ± 0.376 g | Weight, 4 week [1]: 15.48 ± 0.35 g | liver weight [1]: 0.85 ± 0.05 g | liver/body weight [1]: 5.48 ± 0.28 % | ALT, 3 weeks [1]: 183.36 ± 29.85 U/L | AST, 3 weeks [1]: 113.46 ± 13.79 U/L | ALT, 4 weeks [1]: 90.68 ± 42.13 U/L | AST, 4 weeks [1]: 83.24 ± 12.08 U/L | HDL (blood lipid) [1]: 0.61 ± 0.02 mmol/L | LDL (blood lipid) [1]: 2.93 ± 0.12 mmol/L | TC (blood lipid) [1]: 1.25 ± 0.14 mmol/L | TG (blood lipid) [1]: 0.57 ± 0.06 mmol/L | HE score [1]: 1.4 | Sirius red staining area [1]: 0.398 ± 0.030% | liver TC [1]: 41.7 ± 5.73 µmol/g protein | liver TG [1]: 307 ± 26.3 µmol/g protein | blood lipid levels (in words) [1]: different reductions in blood lipids | liver triglyceride and cholesterol content (in words) [1]: different lowering effects | liver weight and liver/body weight (in words) [1]: significantly increases mouse liver weight and liver/body weight | ALT and AST compared to the model group (in words) [1]: showing the same way as the obeticholic acid group | efflux ratio [2]: 3.75 | Papp A→B ([2]; Caco-2, Papp A-B): 8.87 ×10⁻⁶ cm/s | Papp A→B ([2]; Caco-2, Papp A-B, Average): 9.02 ×10⁻⁶ cm/s | Papp A→B ([2]; Caco-2, Papp A-B, Sample-01): 8.57 ×10⁻⁶ cm/s | Papp A→B ([2]; Caco-2, Papp A-B, Sample-02): 9.47 ×10⁻⁶ cm/s | Papp B→A [2]: 33.3 ×10⁻⁶ cm/s | Papp A→B [2, 3]: > 2.5 ×10⁻⁶ cm/s | recovery ([2]; Average): 70.8% | recovery ([2]; Sample-01): 64.9% | recovery ([2]; Sample-02): 76.8%
